Assay results as given in patent US11091414B2, “Complexes of 1-methylcyclopropene with metal coordination polymer networks” (AGROFRESH INC., priority 2014, dated 2021).

Assays:
Type in all cases: physicochemical
[1] = Stability in water by powder X-ray diffraction; conditions: soaked in water 1 hour, 5 hours, 20 hours
[2] = Thermal stability by thermogravimetric analysis (TGA); conditions: 10° C./min to 600° C. under nitrogen
Procedure: This Example illustrates the thermal stability of MCPN. Thermogravimetric analysis (TGA) was conducted to determine the temperature that causes structural change in MCPN. […] TGA data was collected on a TA Q5000 Analyzer with a temperature ramping rate of 10° C./min from room temperature to 600° C. under nitrogen gas flow.

[3] = Release rate of 1-MCP by hydration with water (method C)
Procedure: This Example illustrates the release rate of 1-MCP from MCPNs and cyclodextrins. […] Encapsulation of sample S4 was carried out using methods A and D. Method C was used for the release of 1-MCP, where about 25 mg of S1 and S4 were hydrated with 25 mL of water in a 500 mL glass bottle under agitation. Headspace samples were withdrawn periodically to quantify the released 1-MCP.

[4] = Adsorption or inclusion level of 1-MCP in adsorbents/encapsulants (release in water, headspace GC)
Procedure: This Example provides specific examples of methods for adsorbing 1-MCP into a MCPN. Adsorption of 1-MCP was carried out using both a modified solid method (method A) and a solution-based method (method B), as disclosed herein. The general protocol in both methods included a dual-vessel system, where 1-MCP was generated in the first vessel, also referred to as the generation vessel, and the adsorption took place in the second vessel, also referred to as the adsorption vessel. Before adsorption, 50 mg of adsorbent was first dried in a vacuum oven at 100° C. overnight and sealed in the adsorption vessel. […]
This Example illustrates some of the differences between the MCPNs of the present disclosure and prior art encapsulants (cyclodextrins). […] The percentage adsorbed or encapsulated was quantified by taking 55 mg of A1 or E4 and mixed with 25 ml of water in 500 ml sealed glass bottles to release 1-MCP.
Headspace sample was collected and injected into gas chromatography using methods described in Mir, “Harvest Maturity, Storage Temperature and 1-MCP Application Frequency Alter Firmness Retention and Chlorophyll Fluorescence of “Redchief Delicious” Apples,” Journal of American society of horticultural science, 2001, 126(5): 618-624). […] The peak area was used to quantify the concentration.

Decomposing temperature [2]	Time to complete release of 1-MCP ([3]; loaded by method A)	Time to complete release of 1-MCP ([3]; loaded by method D)	% Released ([3]; loaded by method D, 5 min)	% Released ([3]; loaded by method D, 15 min)	% Released ([3]; loaded by method D, 25 min)	% Released ([3]; loaded by method D, 40 min)	% Released ([3]; loaded by method D, 60 min)	Adsorption or inclusion level ([4]; 1-MCP loaded by method A (solid method))	Adsorption or inclusion level ([4]; 1-MCP loaded by method D (solution in pH 4.6 buffer, 50 mg S4/mL))	Compound	Change of X-ray pattern / structure after soaking in water [1]
280 °C	almost instantaneously	≤ 40 min	39%	62%	84%	100%	100%	0.05%	2.46%	OC[C@H]1O[C@@H]2O[C@H]3[C@H](O)[C@@H](O)[C@@H](O[C@H]4[C@H](O)[C@@H](O)[C@@H](O[C@H]5[C@H](O)[C@@H](O)[C@@H](O[C@H]6[C@H](O)[C@@H](O)[C@@H](O[C@H]7[C@H](O)[C@@H](O)[C@@H](O[C@H]1[C@H](O)[C@H]2O)O[C@@H]7CO)O[C@@H]6CO)O[C@@H]5CO)O[C@@H]4CO)O[C@@H]3CO [S4, Alpha cyclodextrin]	dramatic structure change after 1 hour soaking in water
280 °C	–	–	–	–	–	–	–	–	–	OC[C@H]1O[C@@H]2O[C@H]3[C@H](O)[C@@H](O)[C@@H](O[C@H]4[C@H](O)[C@@H](O)[C@@H](O[C@H]5[C@H](O)[C@@H](O)[C@@H](O[C@H]6[C@H](O)[C@@H](O)[C@@H](O[C@H]7[C@H](O)[C@@H](O)[C@@H](O[C@H]8[C@H](O)[C@@H](O)[C@@H](O[C@H]1[C@H](O)[C@H]2O)O[C@@H]8CO)O[C@@H]7CO)O[C@@H]6CO)O[C@@H]5CO)O[C@@H]4CO)O[C@@H]3CO [C-b, beta cyclodextrin]	–
